This is an account of results in article PMC11969438 (Inorganic Chemistry Frontiers, 2025).

Usually IC50 stands for the concentration that inhibits the measured activity by half. As usually defined, the EC50 is the concentration at which the effect is half-maximal.

The subject of experiment [1] is THP1-Dual, HCT116, HCT116/OxR and CT-26 cells. Nature of the experiment: MTT-based cell viability assay, 72 h, statements over all investigated cell lines. Also noted: species or system human and murine. Conditions: none of the investigated cell lines vulnerable, read-out: IC50 of free single agent. As for the experimental part:
Cell models were seeded (2–2.5 × 10^3 cells per well) in 96-well plates. After 24 h of recovery, the compounds were applied at the concentrations indicated in triplicate. Cell viability was determined after 72 h of continuous drug incubation using an MTT-based cell viability assay (EZ4U, Biomedica, Vienna, Austria) according to the manufacturer's recommendations. Absorbance was measured at 450 nm (vs. 620 nm as reference) using a multimode microplate reader (Tecan Spark, Zurich, Switzerland). Half-maximal inhibitory concentrations (IC50 values) were derived via interpolation from dose–response curves, modeled with the four-parameter logistic (4PL) nonlinear regression model in GraphPad Prism (La Jolla, CA, USA) from at least three independent experiments.

Experiment [2] deals with NF-κB pathway (STING-dependent). Nature of the experiment: NF-κB-inducible SEAP reporter in THP1-Dual reporter cell model. The experiment is classed as cell-based, human. The text has this:
(§1) The THP1-Dual™ reporter cell model for simultaneously monitoring the activity of the IRF and NF-κB pathway contains an IRF-inducible luciferase reporter under the control of an ISG54 minimal promoter in conjunction with five interferon (IFN)-stimulated response elements, and an induced SEAP driven by an IFN-β minimal promoter fused to five copies of the NF-κB consensus transcriptional response element and three copies of the c-Rel binding site. The luciferase and SEAP reporter are measurable in the cell culture supernatant using QUANTI-Luc™ 4 Lucia/Gaussia (InvivoGen) and QUANTI-Blue™ (InvivoGen) solution, respectively. Cells were seeded at 1 × 10^5 cells per well in 96-well plates in RPMI-1640 medium, supplemented with 10% FCS, L-glutamine and Pen-Strep. After 2 h of recovery, the compounds were applied at the concentrations indicated in triplicate. The cell culture supernatant (SN) was collected after 24 h of drug incubation and secreted luciferase and SEAP reporter levels were measured according to the manufacturer's recommendations. In brief, for the detection of luciferase, 20 μL of SN were transferred into 96-well white opaque plates, and 30 μL of QUANTI-Luc™ reagent were added per well using an injector module in a multimode microplate reader (Tecan Spark, Zurich, Switzerland). Luminescence was recorded at a reading time of 0.1 second. For the detection of SEAP, 10 μL of SN were transferred to 96-well plates and 90 μL of QUANTI-Blue™ were added per well. Absorbance was measured at 620 nm. Half-maximal effective concentrations (EC50 values) were derived via interpolation from dose–response curves, modeled with the four-parameter logistic (4PL) nonlinear regression model in GraphPad Prism. For comparison, the maximal response rate of the prodrug was depicted in the percent of the maximal response rate achieved by SR-717 or MSA-2 (%EMAX) at the respective concentrations tested. Activatability, tested in co-incubation experiments with AA (50 μM), was expressed as the area under the curve (AUC) ratio of +AA vs. −AA-treated cells. The STING-dependency of the reporter induction was tested by co-administration of the STING inhibitor H-151 (10 μM), added to the cell culture medium 2 h before applying the investigated compounds. In addition to monitoring secreted reporter levels, the cell viability of the reporter cells was determined after 24 h of drug treatment by an MTT-based cell viability assay.

Experiment [3] relates to IRF pathway (STING-dependent). Also on record: method as in PMID 32820126. Conditions: read-out: IRF EC50, previous report; cited from earlier work.
Experiment [4] concerns IRF pathway (STING-dependent). Nature of the experiment: IRF-inducible luciferase reporter in THP1-Dual reporter cell model. The class given is cell-based, human.
Excerpt: as §1
For orientation: Reporter assays use an easily measured gene product as a stand-in for the process of interest.

Where [5] appears, read: 24 h, maximal response relative to SR-717.
Where [6] appears, read: 24 h exposure, normalized to cell viability, oxaliplatin in combinations 5 μM.

Each structure is given as a SMILES string. Like-named read-outs stand apart in the source and are kept apart here. Where only a bound is given, the exact number is not on record here.

For `O=C(Nc1cc(F)c(F)cc1C(=O)[O-])c1ccc(-n2ccnc2)nn1.[Li+]` [SR-717], the concentration for half-maximal inhibition (IC50) in experiment [1] was more than 75 µM. Moreover, in experiment [2] (24 h), the “NF-κB EC50 ratio fold SR-717” value is 1.0 fold and the “activation of NF-κB signaling pathway” value is given as “robustly activated”. Also, the “NF-κB %EMAX of SR-717” value in experiment [2] (setting [5]) was 100%. Also, the EC50 in experiment [2] (setting [6]) amounted to 5.8 µM. The EC50 in experiment [3] is 2.1 µM. For the same compound, in experiment [4] (24 h), the “IRF EC50 ratio fold SR-717” value came to 1.0 fold and the “activation of IRF signaling pathway” value is listed as “robustly activated”. In addition, the “IRF %EMAX of SR-717” value in experiment [4] (setting [5]) amounted to 100%. The EC50 in experiment [4] (setting [6]) was 2.9 µM. For the same compound, in experiment [4] (AA 50 μM), the “impact of reducing conditions on IRF-induced reporter signal (AUC ratio +AA/−AA)” value was “no notable modulation”.
